Series [1] concerns CYP2A. As to the kind of experiment: in vitro. Particulars: rat.
Series [2] relates to CYP2A. As to the kind of experiment: In vitro rat liver microsome experiment, CYP2A (probe CA).
The test system of series [3] is CYP2C19. As to the kind of experiment: in vitro. As to conditions: rat.
For series [4], the system named is CYP2C19. As to the kind of experiment: In vitro rat liver microsome experiment, CYP2C19 (probe OPZ).
For another series, the system named is CYP2D6. As to the kind of experiment: In vitro rat liver microsome experiment, CYP2D6 (probe DM). In kind it is in vitro ADME. The procedure:
(§1) Total reaction volume was complemented to 200 μL by PBS. After pre-incubating for 3 min at 37 °C, the reaction was initiated by the addition of NADPH solution (incubation time was optimized as 45 min for PN; 60 min for CA, 15 min for OPZ; 20 min for DM; 90 min for CLZ; 15 min for MDZ). 200 μL ice acetonitrile was added as stop reagent. After a vortex for 3 min and centrifugation for 10 min at 14,000g, an aliquot of 20 μL supernatant was injected into the HPLC system at an interval of 10 min. The amount of methanol in diluted concentrations (<1 %) had no effect on liver microsomes. All the testing groups were in three replicates (n = 3). Under the optimized condition, Vmax, Michaelis constant (Km), enzyme activity (E%), and IC50 values were obtained.

A further series deals with CYP2E1 (Rattus norvegicus, UniProt P05182). As to the kind of experiment: In vitro rat liver microsome experiment, CYP2E1 (probe CLZ). The format is in vitro ADME.
Sequence of CYP2E1 (P05182 whole entry): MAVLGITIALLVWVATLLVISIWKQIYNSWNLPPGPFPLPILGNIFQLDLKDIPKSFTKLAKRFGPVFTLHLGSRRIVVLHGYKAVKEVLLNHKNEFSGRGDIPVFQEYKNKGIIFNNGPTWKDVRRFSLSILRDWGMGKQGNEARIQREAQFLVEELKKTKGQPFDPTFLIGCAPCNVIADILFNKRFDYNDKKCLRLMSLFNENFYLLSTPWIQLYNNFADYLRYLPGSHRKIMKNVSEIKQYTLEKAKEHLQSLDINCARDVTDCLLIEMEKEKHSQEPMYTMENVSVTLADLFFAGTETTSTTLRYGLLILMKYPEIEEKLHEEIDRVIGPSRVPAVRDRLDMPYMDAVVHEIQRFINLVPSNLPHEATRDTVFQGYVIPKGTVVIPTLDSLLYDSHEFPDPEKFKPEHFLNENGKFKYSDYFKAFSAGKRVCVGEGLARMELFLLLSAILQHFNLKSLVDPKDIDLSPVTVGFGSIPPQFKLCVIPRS
The next series relates to CYP3A. As to the kind of experiment: In vitro rat liver microsome experiment, CYP3A (probe MDZ). The format is in vitro ADME. As for the experimental part: as §1
Incubation systems including 1.0 mg/mL RLM, PN (12.5, 25.0, and 50.0 μM), NPDPH, and CHR (0, 2, 4, 8 μM) for 1A2 or 0.5 mg/mL RLM, MDZ (2.5, 5.0, 10.0 μM), NPDPH, and CHR (0, 2, 4, 8 μM) for CYP3A were employed as above (n = 3). A serial of Lineweaver–Burk plots by 1/[S] versus 1/V were prepared individually under different concentrations of CHR. The location of intersection point for the linear lines decided the type of inhibition. Namely, if the point lied in Y axis it was competitive inhibition and if it lied in X axis it was non-competitive inhibition. Finally, if the linear lines were paralleled, it was uncompetitive inhibition. Concomitantly, inhibition constant (Ki) was calculated when a second plotting was given by intercepts of the four lines versus [I] (inhibitor concentration).

For another series, the system named is P. berghei K173 strain. As to the kind of experiment: In vivo anti-malarial efficacy (chemo-suppressive study) in infected mice. Particulars: for Parasitemia: placebo 22.15 ± 6.25.
Another series has as its target T1, CYP1A2 (Rattus norvegicus, UniProt P04799).
T1 sequence (P04799 1-513): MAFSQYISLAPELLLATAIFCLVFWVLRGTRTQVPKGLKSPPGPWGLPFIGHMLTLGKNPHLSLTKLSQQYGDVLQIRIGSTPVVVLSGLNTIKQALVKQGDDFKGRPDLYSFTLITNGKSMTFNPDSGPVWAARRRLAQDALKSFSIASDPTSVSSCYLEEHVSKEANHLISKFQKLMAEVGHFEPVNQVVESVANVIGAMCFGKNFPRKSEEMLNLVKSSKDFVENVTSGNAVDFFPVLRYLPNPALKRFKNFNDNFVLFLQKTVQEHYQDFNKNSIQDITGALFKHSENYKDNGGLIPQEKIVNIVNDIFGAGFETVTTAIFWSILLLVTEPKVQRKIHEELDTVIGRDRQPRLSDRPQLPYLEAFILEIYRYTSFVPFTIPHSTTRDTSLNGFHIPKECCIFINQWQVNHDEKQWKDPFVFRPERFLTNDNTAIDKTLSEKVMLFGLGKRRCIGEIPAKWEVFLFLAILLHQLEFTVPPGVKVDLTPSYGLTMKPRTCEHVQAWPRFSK
As to the kind of experiment: In vitro rat liver microsome experiment, CYP1A2 (probe PN). The format is in vitro ADME.

On the set-up of series [5]: method as in PMID 17521300, PMID 18064444, PMID 9443848. As to conditions: cited from earlier work.
Series [6] is described as follows: Pharmacokinetics of ART in rats in absence and presence of CHR. As to conditions: ART in rat plasma, ART 5 mg/kg intramuscular on day 3, 1 h after 3-day oral CHR (5, 10, 20 mg/kg for 1:1, 1:2, 1:4) or CMC-Na, n = 5, mean ± SD. The format is in vivo. As for the experimental part:
Male SD rats (200-240 g) were supplied by Laboratory Animal Center of […] Medical University (Grade II, Certificate No. […] Animals were acclimatized in environmentally controlled breeding cages for at least 3 days before being used and were provided with standard laboratory food and water and were fasted for 12 h prior to the study. Water was freely available for rats during experiments. The experimental protocol was approved by the University Ethics Committee. All procedures involving animals were in accordance with the Regulations of the Experimental Animal Administration, State Committee of Science and Technology, People's Republic of China. 20 rats were randomly divided into 4 groups (n = 5). Group A was the control vehicle (ART alone) and group L, M, and H were the combination groups with CHR in three fixed ratios (1:1, 1:2, and 1:4). […] Group A was orally given by 0.5 % CMC-Na solution once per day for 3 days. On day 3, an intramuscular injection of ART (5 mg/kg) was subsequently administered 1 h after CHR or CMC-Na solution pre-exposure. […] Two hours later, animals took food and water freely to replenish. Plasma samples were separated by centrifugation 3500g for 10 min and 200 μL plasmas were stored at -20 °C until analysis. To 100 μL blank plasma, 50 μL ARM working solution (IS, 2 μg/mL), 100 μL methanol aqueous solution (50:50, v/v), and a standard solution or quality control (QC) solution were added. After vortex mixing for 1 min, the sample was extracted with 3 × 3 mL of methyl tert-butyl ether with gentle shaking for 10 min followed by centrifugation at 3500g for 10 min. […] The residue was reconstituted in 100 μL methanol and was filtered through a 0.22 μm nylon filter. Aliquots (10 μL) of the solution were injected onto the LC-MS analysis. Pharmacokinetic parameters were computed from plasma concentration-time profiles of ART by software DAS 3.0.

Substrate in series [7]: CCOc1ccc(NC(C)=O)cc1
As to the kind of experiment: cells, lysate or membranes named. Particulars: other: probe substrate in rat liver microsomes; 37.0 °C.

The mark [8] stands for this setting: probe substrate in rat liver microsomes.
[9] abbreviates: rat liver microsomes, CHR 0–50 μM, P > 0.05.
[10] abbreviates: Lineweaver–Burk plots, rat liver microsomes.
Where [11] appears, read: moderate: 1 < IC50 < 10 μM, criteria of ref 21.

In the case of `O=c1ccc2ccccc2o1` [CA, coumarin, reference compound], in the series on CYP2A [1], the Km at 60 min turned out to be 8.9 µM. Further, in the series with CYP2A [2] (setting [8]), the Vmax was 0.12 nmol/min/mg proteins.

In the case of `COc1ccc2[nH]c([S+]([O-])Cc3ncc(C)c(OC)c3C)nc2c1` (centres unmarked) [OPZ, omeprazole, reference compound], the Michaelis constant (Km) at 15 min in the series with CYP2C19 [3] stood at 24.1 µM. For the same molecule, in the series with CYP2C19 [4] (setting [8]), the Vmax stood at 0.58 nmol/min/mg proteins.

Turning to `COc1ccc2c(c1)[C@]13CCCC[C@@H]1[C@H](C2)N(C)CC3` [DM, dextromethophan], in the series on CYP2D6 (setting [8]), the Km stood at 28.9 µM and the Vmax is given as 0.20 nmol/min/mg proteins.

Consider `COc1cc(-c2oc3cc(OC)c(OC)c(O)c3c(=O)c2OC)ccc1O` [CHR, chrysosplenetin], for which the IC50 on CYP2E1 (rat liver microsomes, CLZ 15 μM, GraphPad Prism 5.0) is 28.2 µM; against CYP1A2 (rat liver microsomes, PN 25 μM, GraphPad Prism 5.0) it was 4.61 µM. The inhibitor strength class entry is given as “weak inhibitor” against CYP2E1 (weak: IC50 >10 μM, criteria of ref 21); “moderate inhibitor” in the series with CYP3A (setting [11]); “moderate inhibitor” on CYP1A2 (setting [11]); “moderate inhibitor” in the series with CYP2C19 [4] (setting [11]). Moreover, the “impact on enzyme activity” value in the series with CYP2A [2] (setting [9]) and in the series on CYP2D6 (setting [9]) was “no impact” in each case. Moreover, the figures for the inhibition type entry with CYP3A (setting [10]) and against CYP1A2 (setting [10]) were “uncompetitive” and “noncompetitive”, respectively. Further, the IC50 at 15 min in the series with CYP3A (probe midazolam (MDZ) 5 μM, rat liver microsomes, MDZ 5 μM, GraphPad Prism 5.0) is 3.38 µM; with CYP2C19 [4] (rat, microsomes), 6.23 µM. The molecule also yielded a Ki at 15 min in the series on CYP3A (rat, rat liver microsomes, probe midazolam (MDZ) 2.5, 0.5 mg/mL RLM, MDZ 2.5, 5.0, 10.0 μM, CHR 0, 2, 4, 8 μM, second plot of Lineweaver–Burk intercepts) of 3.71 µM. The Parasitemia came to 19.74 ± 13.33% in the series on P. berghei K173 strain (CHR alone 5 mg/kg (CHR-L), Kunming mice, n = 10); 17.19 ± 5.45% in the series with P. berghei K173 strain (CHR alone 10 mg/kg (CHR-M), Kunming mice, n = 10); 18.32 ± 8.86% in the series on P. berghei K173 strain (CHR alone 20 mg/kg (CHR-H), Kunming mice, n = 10). Further, at CYP1A2 (1.0 mg/mL RLM, PN 12.5, 25.0, 50.0 μM, CHR 0, 2, 4, 8 μM, second plot of Lineweaver–Burk intercepts), the affinity, expressed as Ki, was 4.07 µM.

`Cc1ncc2n1-c1ccc(Cl)cc1C(c1ccccc1F)=NC2` [MDZ, Midazolam, reference compound]: in the series with CYP3A (setting [8]), the Km at 15 min was found to be 7.88 µM and the Vmax was 0.81 nmol/min/mg proteins.

`C[C@@H]1CC[C@H]2[C@@H](C)C(=O)O[C@@H]3O[C@@]4(C)CC[C@@H]1[C@]32OO4` [ART, Artemisinin]: the oral bioavailability in [5] is recorded as 8–10%. The “AUC0–t” value in [6] is 390.58 ± 32.46 µg·h/mL. In addition, in [6] (male), the Cmax was determined as 51.6 ± 9.47 µg/mL and the half-life is 3.62 ± 0.86 h. For the same molecule, in series [6] (male, read-out: CLz (converted)), the clearance is 0.217 mL/min/kg. Further, the Parasitemia in the series on P. berghei K173 strain (Kunming mice, ART 5 mg/kg alone or with CHR 5, 10, 20 mg/kg (1:1, 1:2, 1:4), 3 days, 24 h after last dosing, n = 10) was determined as 13.95 ± 7.89 %. In addition, the “decrease of parasitaemia (%) compared with placebo” value in the series on P. berghei K173 strain (mice, P < 0.05) is recorded as 1.59 folds. Moreover, in the series with P. berghei K173 strain (relative to placebo, Kunming mice, ART 5 mg/kg alone or with CHR 5, 10, 20 mg/kg, n = 10), the Inhibition is recorded as 37.06%.

B1: CYP1A2 (Rattus norvegicus) (protein)
chain: MAFSQYISLAPELLLATAIFCLVFWVLRGTRTQVPKGLKSPPGPWGLPFIGHMLTLGKNPHLSLTKLSQQYGDVLQIRIGSTPVVVLSGLNTIKQALVKQGDDFKGRPDLYSFTLITNGKSMTFNPDSGPVWAARRRLAQDALKSFSIASDPTSVSSCYLEEHVSKEANHLISKFQKLMAEVGHFEPVNQVVESVANVIGAMCFGKNFPRKSEEMLNLVKSSKDFVENVTSGNAVDFFPVLRYLPNPALKRFKNFNDNFVLFLQKTVQEHYQDFNKNSIQDITGALFKHSENYKDNGGLIPQEKIVNIVNDIFGAGFETVTTAIFWSILLLVTEPKVQRKIHEELDTVIGRDRQPRLSDRPQLPYLEAFILEIYRYTSFVPFTIPHSTTRDTSLNGFHIPKECCIFINQWQVNHDEKQWKDPFVFRPERFLTNDNTAIDKTLSEKVMLFGLGKRRCIGEIPAKWEVFLFLAILLHQLEFTVPPGVKVDLTPSYGLTMKPRTCEHVQAWPRFSK
In the case of B1, in [7], the Km is 30.88 µM and the Vmax amounted to 0.14 nmol/min/mg proteins.

These data come from article PMC4632357, “Impact of chrysosplenetin on the pharmacokinetics and anti-malarial efficacy of artemisinin against Plasmodium berghei as well as in vitro CYP450 enzymatic activities in rat liver microsome” (Malaria Journal, 2015).
